Reference: ChEMBL document CHEMBL1148853, “Studies on acyl pyrrolidine inhibitors of HCV RNA-dependent RNA polymerase to identify a molecule with replicon antiviral activity” (Bioorg Med Chem Lett, 2007)

What was measured:
[1] = Inhibition of HCV NS5B J4 delta 21 polymerase; set-up: species or system Hepacivirus hominis
[2] = Permeability across artificial membrane by PAMPA assay; assay type: ADME; conditions: read-out: permeability
[3] = test system: Hepacivirus hominis; experiment: Inhibition of HCV NS5B J4 delta 21 polymerase at 10 uM
[4] = Inhibition of HCV NS5B RB01 polymerase; set-up: species or system Hepacivirus hominis
[5] = test system: Hepatitis C virus; experiment: Inhibition of HCV replicon by cell based assay; assay type: functional, organism-based, Hepacivirus hominis

Row | SMILES | IC50 [1] | IC50 [4] | also measured
1 | CC(C)C[C@@]1(C(=O)O)C[C@H](C(=O)NS(C)(=O)=O)[C@H](c2nccs2)N1C(=O)c1ccc(C(C)(C)C)cc1 | 0.04 µM |  | Papp [2]: < 0.03 ×10⁻⁶ cm/s
2 | CC(C)C[C@@]1(C(=O)O)C[C@H](CO)[C@H](c2cccs2)N1C(=O)c1ccc(C(F)(F)F)cc1 |  |  | inhibition [3]: 51%
3 | CC(C)C[C@@]1(C(=O)O)C[C@H](C(N)=O)[C@H](c2nccs2)N1C(=O)c1ccc(C(F)(F)F)cc1 | 2.05 µM |  | 
4 | CC(C)C[C@@]1(C(=O)O)C[C@H](C(=O)O)[C@H](c2nccs2)N1C(=O)c1ccc(C(C)(C)C)cc1 (stereo in doubt; (+)28) | 0.03 µM | 2.1 µM | 
5 | CC(C)C[C@@]1(C(=O)O)C[C@H](C(=O)Nc2ccccc2)[C@H](c2nccs2)N1C(=O)c1ccc(C(C)(C)C)cc1 (stereo in doubt; (+)41) |  | 0.5 µM | IC50 [5]: 30 µM
6 | CC(C)C[C@@]1(C(=O)O)C[C@H](C(N)=O)[C@H](c2cccs2)N1C(=O)c1ccc(C(F)(F)F)cc1 (stereo in doubt; (+)29) | 2.23 µM |  | 
7 | CC(C)C[C@@]1(C(=O)O)C[C@H](C(N)=O)[C@H](c2nccs2)N1C(=O)c1ccc(C(C)(C)C)cc1 (stereo in doubt; 32) | 0.08 µM | 4.4 µM | 
8 | CNC(=O)[C@H]1C[C@@](CC(C)C)(C(=O)O)N(C(=O)c2ccc(C(C)(C)C)cc2)[C@H]1c1nccs1 |  | 22 µM | 
9 | CC(C)C[C@@]1(C(=O)NC(C)C)C[C@H](C(=O)O)[C@H](c2cccs2)N1C(=O)c1ccc(C(F)(F)F)cc1 | > 20 µM |  | 
10 | CC(C)C[C@@]1(C(N)=O)C[C@H](C(=O)O)[C@H](c2cccs2)N1C(=O)c1ccc(C(F)(F)F)cc1 | 8.1 µM |  | 
11 | CCNC(=O)[C@]1(CC(C)C)C[C@H](C(=O)O)[C@H](c2cccs2)N1C(=O)c1ccc(C(F)(F)F)cc1 | > 20 µM |  | 
12 | CC(C)C[C@@]1(C(=O)OCc2ccccc2)C[C@H](C(=O)O)[C@H](c2cccs2)N1C(=O)c1ccc(C(F)(F)F)cc1 | > 20 µM |  | 
13 | COC(=O)[C@H]1C[C@@](CC(C)C)(C(=O)O)N(C(=O)c2ccc(C(F)(F)F)cc2)[C@H]1c1cccs1 | > 20 µM |  | 
14 | CC(C)C[C@@]1(C(=O)O)C[C@H](C(=O)NS(=O)(=O)Cc2ccccc2)[C@H](c2nccs2)N1C(=O)c1ccc(C(C)(C)C)cc1 | 0.55 µM | 4.23 µM | 
15 | CNC(=O)[C@]1(CC(C)C)C[C@H](C(=O)O)[C@H](c2cccs2)N1C(=O)c1ccc(C(F)(F)F)cc1 | > 20 µM |  | 
16 | CC(C)C[C@@]1(C(=O)O)C[C@H](C(=O)O)[C@H](c2cccs2)N1C(=O)c1ccc(C(F)(F)F)cc1 (stereo in doubt; (-)1) | 18 µM |  | 
17 | CC(C)C[C@@]1(C(=O)O)C[C@H](C(=O)O)[C@H](c2nccs2)N1C(=O)c1ccc(C(C)(C)C)cc1 (stereo in doubt; (-)28) | 2.36 µM |  | 
18 | CC(C)C[C@@]1(C(=O)O)C[C@H](C(N)=O)[C@H](c2cccs2)N1C(=O)c1ccc(C(F)(F)F)cc1 (stereo in doubt; (-)29) | > 30 µM |  | 
19 | CC(C)C[C@@]1(C(=O)O)C[C@H](C(=O)O)[C@H](c2nccs2)N1C(=O)c1ccc(C(F)(F)F)cc1 | 0.45 µM |  | 
20 | CC(C)C[C@@]1(C(=O)O)C[C@H](C(=O)NS(=O)(=O)c2ccccc2)[C@H](c2nccs2)N1C(=O)c1ccc(C(C)(C)C)cc1 | 0.5 µM | 3.15 µM | 

Row | SMILES | IC50 [1] | IC50 [4] | also measured
21 | CC(C)C[C@@]1(C(=O)O)C[C@H](C(=O)NS(=O)(=O)C(F)(F)F)[C@H](c2cccs2)N1C(=O)c1ccc(C(F)(F)F)cc1 | 0.2 µM |  | 
22 | COC(=O)[C@]1(CC(C)C)C[C@H](C(=O)O)[C@H](c2cccs2)N1C(=O)c1ccc(C(F)(F)F)cc1 | > 20 µM |  | 
23 | CC(C)C[C@@]1(C(=O)O)C[C@H](C(=O)Nc2ccccc2)[C@H](c2nccs2)N1C(=O)c1ccc(C(C)(C)C)cc1 (stereo in doubt; 41) | 0.16 µM | 3.1 µM | IC50 ([5]; Hepatitis C virus): 45 µM
24 | COC(=O)[C@H]1C[C@@](CC(C)C)(C(=O)OC)N(C(=O)c2ccc(C(F)(F)F)cc2)[C@H]1c1cccs1 | > 20 µM |  | 
25 | CC(C)C[C@@]1(CO)C[C@H](C(=O)O)[C@H](c2cccs2)N1C(=O)c1ccc(C(F)(F)F)cc1 |  |  | inhibition [3]: 0%
26 | CC(C)C[C@@]1(C(=O)O)C[C@H](C(N)=O)[C@H](c2cccs2)N1C(=O)c1ccc(C(F)(F)F)cc1 (stereo in doubt; 19) | 4.4 µM |  | 
27 | CC(C)C[C@@]1(C(=O)O)C[C@H](C(=O)O)[C@H](c2cccs2)N1C(=O)c1ccc(C(F)(F)F)cc1 (stereo in doubt; 1) |  | 20 µM | 
28 | CC(C)C[C@@]1(C(=O)NCc2ccccc2)C[C@H](C(=O)O)[C@H](c2cccs2)N1C(=O)c1ccc(C(F)(F)F)cc1 | > 20 µM |  | 
29 | CC(C)C[C@@]1(C(=O)O)C[C@H](C(N)=O)[C@H](c2nccs2)N1C(=O)c1ccc(C(C)(C)C)cc1 (stereo in doubt; (-)32) | 2.5 µM |  | 
30 | CC(C)C[C@@]1(C(=O)O)C[C@H](C(=O)O)[C@H](c2nccs2)N1C(=O)c1ccc(C(C)(C)C)cc1 (stereo in doubt; 28) | 0.07 µM | 3.8 µM | 
31 | CC(C)C[C@@]1(C(=O)O)C[C@H](C(N)=O)[C@H](c2nccs2)N1C(=O)c1ccc(C(C)(C)C)cc1 (stereo in doubt; (+)32) | 0.07 µM | 3.8 µM | 
32 | CC(C)C[C@@]1(C(=O)Nc2ccccc2)C[C@H](C(=O)O)[C@H](c2cccs2)N1C(=O)c1ccc(C(F)(F)F)cc1 | > 20 µM |  | 
33 | CC(C)C[C@@]1(C(=O)O)C[C@H](C(=O)Nc2ccccc2)[C@H](c2nccs2)N1C(=O)c1ccc(C(C)(C)C)cc1 (stereo in doubt; (-)41) |  | > 100 µM | CC50 ([5]; Hepatitis C virus): > 200 µM
34 | CC(C)C[C@@]1(C(=O)O)C[C@H](C(=O)NCc2ccccc2)[C@H](c2nccs2)N1C(=O)c1ccc(C(C)(C)C)cc1 | 8.29 µM | 68 µM | 
35 | CC(C)C[C@@]1(C(=O)O)C[C@H](C(N)=O)[C@H](c2cccs2)N1C(=O)c1ccc(C(C)(C)C)cc1 | 0.33 µM |  | 
36 | CC(C)C[C@@]1(C(=O)O)C[C@H](C(=O)NS(C)(=O)=O)[C@H](c2nccs2)N1C(=O)c1ccc(C(F)(F)F)cc1 | 0.41 µM |  | 
37 | CC(C)C[C@@]1(C(=O)O)C[C@H](C(=O)O)[C@H](c2cccs2)N1C(=O)c1ccc(C(F)(F)F)cc1 (stereo in doubt; (+)-1) | 0.3 µM | 11.9 µM | 
38 | CC(C)C[C@@]1(C(=O)O)C[C@H](C(=O)NS(C)(=O)=O)[C@H](c2cccs2)N1C(=O)c1ccc(C(F)(F)F)cc1 | 0.23 µM |  | 
39 | CC(C)C[C@@]1(C(=O)O)C[C@H](C(=O)O)[C@H](c2cccs2)N1C(=O)c1ccc(C(C)(C)C)cc1 | 0.75 µM |  | 
